Common to all, as to assay: in vitro HDAC inhibition assay (fluorescence)
Holding throughout (format): biochemical

For one assay, the target named is HDAC4 (Homo sapiens, UniProt P56524). To be noted: for inhibition at 100 µM: read-out: Percentage Inhibition HDAC4. How it is done: (§1) Briefly, all of the compounds are dissolved in DMSO. A series of dilutions of the compounds were prepared with 10% DMSO in HDAC assay buffer and 5 μl of the dilution was added to a 50 μl reaction so that the final concentration of DMSO is 1% in all of reactions. The compounds were pre-incubated in duplicate at RT for 1 hour in a mixture containing HDAC assay buffer, 5 μg BSA, HDAC enzyme (see Table 7) and a the particular HDACi. After 1 hour, the enzymatic reactions were initiated by the addition of HDAC substrate (BPS Bioscience) to a final concentration of 10 μM or 2 μM. The enzymatic reaction proceeded for 30 minutes at 37° C.
Chain of HDAC4 (P56524 whole entry): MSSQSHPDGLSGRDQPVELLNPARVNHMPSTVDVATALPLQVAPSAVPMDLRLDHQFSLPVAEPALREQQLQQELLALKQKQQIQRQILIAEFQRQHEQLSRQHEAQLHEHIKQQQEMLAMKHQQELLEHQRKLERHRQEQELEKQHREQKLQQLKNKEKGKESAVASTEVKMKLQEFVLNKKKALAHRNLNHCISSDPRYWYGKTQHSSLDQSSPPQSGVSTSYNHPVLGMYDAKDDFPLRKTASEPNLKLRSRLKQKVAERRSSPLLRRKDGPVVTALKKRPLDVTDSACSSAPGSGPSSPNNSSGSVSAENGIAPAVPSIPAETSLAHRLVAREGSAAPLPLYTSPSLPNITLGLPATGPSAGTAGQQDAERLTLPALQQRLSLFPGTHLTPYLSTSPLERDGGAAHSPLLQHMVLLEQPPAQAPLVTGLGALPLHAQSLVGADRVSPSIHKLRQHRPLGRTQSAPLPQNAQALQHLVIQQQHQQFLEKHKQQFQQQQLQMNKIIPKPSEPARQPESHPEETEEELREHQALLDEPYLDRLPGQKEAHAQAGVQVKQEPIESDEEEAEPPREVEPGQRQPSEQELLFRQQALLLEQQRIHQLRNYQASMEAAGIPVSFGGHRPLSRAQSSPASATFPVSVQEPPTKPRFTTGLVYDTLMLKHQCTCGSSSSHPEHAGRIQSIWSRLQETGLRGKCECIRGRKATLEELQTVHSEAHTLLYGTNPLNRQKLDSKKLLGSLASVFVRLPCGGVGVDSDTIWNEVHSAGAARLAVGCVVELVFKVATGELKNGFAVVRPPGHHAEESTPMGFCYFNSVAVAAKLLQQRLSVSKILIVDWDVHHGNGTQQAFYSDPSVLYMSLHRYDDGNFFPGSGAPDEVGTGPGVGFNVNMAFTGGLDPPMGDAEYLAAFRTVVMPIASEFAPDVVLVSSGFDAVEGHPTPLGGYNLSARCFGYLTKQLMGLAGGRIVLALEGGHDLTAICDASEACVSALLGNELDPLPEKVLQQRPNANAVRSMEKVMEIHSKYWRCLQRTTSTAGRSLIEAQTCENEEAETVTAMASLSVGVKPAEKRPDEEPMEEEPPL
(§2) HDAC activity assays were performed in duplicates at each concentration. The fluorescent intensity data were analyzed using the computer software, Graphpad Prism. In the absence of the compound, the fluorescent intensity (Ft) in each data set was defined as 100% activity. In the absence of HDAC, the fluorescent intensity (Fb) in each data set was defined as 0% activity. The percent activity in the presence of each compound was calculated according to the following equation: % activity=(F−Fb)/(Ft−Fb), where F=the fluorescent intensity in the presence of the compound.
(§3) The values of % activity versus a series of compound concentrations were then plotted using non-linear regression analysis of Sigmoidal dose-response curve generated with the equation Y=B+(T−B)/1+10^((Log EC50-X)×Hill Slope), where Y=percent activity, B=minimum percent activity, T=maximum percent activity, X=logarithm of compound and Hill Slope=slope factor or Hill coefficient. The IC50 value was determined by the concentration causing a half-maximal percent activity.

In the next assay the target is T1, HDAC7 (Homo sapiens, UniProt Q8WUI4).
T1 sequence (Q8WUI4 1-952): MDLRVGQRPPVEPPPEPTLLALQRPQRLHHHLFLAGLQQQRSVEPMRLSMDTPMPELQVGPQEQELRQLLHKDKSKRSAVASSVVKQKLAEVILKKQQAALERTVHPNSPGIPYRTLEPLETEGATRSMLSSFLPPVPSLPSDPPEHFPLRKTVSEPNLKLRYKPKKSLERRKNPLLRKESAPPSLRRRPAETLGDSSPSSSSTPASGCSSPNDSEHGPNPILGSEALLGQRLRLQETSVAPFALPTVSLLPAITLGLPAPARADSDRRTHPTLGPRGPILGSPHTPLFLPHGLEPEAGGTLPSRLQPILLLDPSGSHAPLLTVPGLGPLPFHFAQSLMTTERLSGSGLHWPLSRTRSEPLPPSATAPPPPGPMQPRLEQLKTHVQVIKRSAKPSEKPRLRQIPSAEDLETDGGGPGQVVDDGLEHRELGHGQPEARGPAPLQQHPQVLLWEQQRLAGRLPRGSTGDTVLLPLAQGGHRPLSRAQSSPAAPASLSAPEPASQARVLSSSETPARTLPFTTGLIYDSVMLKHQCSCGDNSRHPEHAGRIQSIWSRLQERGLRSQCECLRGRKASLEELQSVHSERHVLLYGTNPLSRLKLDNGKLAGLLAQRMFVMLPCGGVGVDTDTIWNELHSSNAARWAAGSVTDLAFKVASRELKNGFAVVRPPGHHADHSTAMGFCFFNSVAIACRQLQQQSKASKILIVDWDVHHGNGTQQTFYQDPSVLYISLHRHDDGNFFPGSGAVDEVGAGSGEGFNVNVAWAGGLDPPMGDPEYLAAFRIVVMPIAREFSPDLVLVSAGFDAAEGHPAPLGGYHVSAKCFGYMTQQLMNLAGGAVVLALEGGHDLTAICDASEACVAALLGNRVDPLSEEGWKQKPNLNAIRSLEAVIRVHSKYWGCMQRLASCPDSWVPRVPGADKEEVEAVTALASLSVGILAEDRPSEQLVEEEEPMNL
Particulars: for inhibition at 100 µM: read-out: Percentage Inhibition HDAC7. How it is done:
as §1, §2, §3

For the next assay, the target named is HDAC9 (Homo sapiens, UniProt Q9UKV0). Particulars: for inhibition at 100 µM: read-out: Percentage Inhibition HDAC9. Here is the method: as §1, §2, §3
Chain of HDAC9 (Q9UKV0 whole entry): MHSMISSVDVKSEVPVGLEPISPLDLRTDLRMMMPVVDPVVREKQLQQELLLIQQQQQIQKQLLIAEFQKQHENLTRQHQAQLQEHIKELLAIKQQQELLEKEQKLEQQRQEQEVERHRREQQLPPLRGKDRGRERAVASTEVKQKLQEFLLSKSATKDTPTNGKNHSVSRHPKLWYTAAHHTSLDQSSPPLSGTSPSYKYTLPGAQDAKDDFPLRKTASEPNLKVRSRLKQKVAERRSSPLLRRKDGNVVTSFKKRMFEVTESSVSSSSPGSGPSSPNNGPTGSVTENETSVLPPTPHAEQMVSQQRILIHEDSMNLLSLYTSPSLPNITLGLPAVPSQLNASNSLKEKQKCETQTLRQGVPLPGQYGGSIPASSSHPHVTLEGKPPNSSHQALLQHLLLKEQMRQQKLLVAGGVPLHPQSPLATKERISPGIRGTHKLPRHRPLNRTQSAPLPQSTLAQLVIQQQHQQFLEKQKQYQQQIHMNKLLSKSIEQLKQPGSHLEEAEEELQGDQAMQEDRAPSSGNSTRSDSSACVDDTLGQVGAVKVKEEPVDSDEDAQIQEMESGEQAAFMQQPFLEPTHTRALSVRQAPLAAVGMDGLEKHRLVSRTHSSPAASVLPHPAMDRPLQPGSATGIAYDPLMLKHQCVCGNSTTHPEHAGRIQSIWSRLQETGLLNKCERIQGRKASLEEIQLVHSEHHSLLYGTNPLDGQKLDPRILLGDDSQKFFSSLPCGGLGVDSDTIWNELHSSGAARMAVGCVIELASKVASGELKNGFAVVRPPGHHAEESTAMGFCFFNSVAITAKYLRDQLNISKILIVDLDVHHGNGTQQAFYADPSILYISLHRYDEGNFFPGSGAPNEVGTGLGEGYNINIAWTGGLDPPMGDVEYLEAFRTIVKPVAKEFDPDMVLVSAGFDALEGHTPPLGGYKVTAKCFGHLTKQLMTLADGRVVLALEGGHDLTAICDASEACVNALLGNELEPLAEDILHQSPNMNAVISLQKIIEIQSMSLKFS
The next assay concerns the target HDAC5 (Homo sapiens, UniProt Q9UQL6). How it is done: as §1, §2, §3
The next assay deals with T2, HDAC11 (Homo sapiens, UniProt Q96DB2).
T2 sequence (Q96DB2 1-347): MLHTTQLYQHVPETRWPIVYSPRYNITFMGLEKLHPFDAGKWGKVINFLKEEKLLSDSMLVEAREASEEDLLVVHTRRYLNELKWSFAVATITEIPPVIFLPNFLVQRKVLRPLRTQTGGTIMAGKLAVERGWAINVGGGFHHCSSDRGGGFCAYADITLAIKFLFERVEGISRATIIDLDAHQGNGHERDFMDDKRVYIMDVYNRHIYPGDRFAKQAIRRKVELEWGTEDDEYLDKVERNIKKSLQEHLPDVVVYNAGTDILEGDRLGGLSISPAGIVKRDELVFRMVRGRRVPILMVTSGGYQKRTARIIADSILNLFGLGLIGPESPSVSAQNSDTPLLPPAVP
Here is the method: as §1, §2, §3

A further assay addresses HDAC1 (Homo sapiens, UniProt Q13547). How it is done: as §1, §2, §3

Here are results for three molecules from patent US10953011B2, “Methods of treating virally associated cancers with histone deacetylase inhibitors” (priority 2019, dated 2021).

A value given as a limit tells only on which side of the number the result lay.

Chain of HDAC5 (Q9UQL6 whole entry): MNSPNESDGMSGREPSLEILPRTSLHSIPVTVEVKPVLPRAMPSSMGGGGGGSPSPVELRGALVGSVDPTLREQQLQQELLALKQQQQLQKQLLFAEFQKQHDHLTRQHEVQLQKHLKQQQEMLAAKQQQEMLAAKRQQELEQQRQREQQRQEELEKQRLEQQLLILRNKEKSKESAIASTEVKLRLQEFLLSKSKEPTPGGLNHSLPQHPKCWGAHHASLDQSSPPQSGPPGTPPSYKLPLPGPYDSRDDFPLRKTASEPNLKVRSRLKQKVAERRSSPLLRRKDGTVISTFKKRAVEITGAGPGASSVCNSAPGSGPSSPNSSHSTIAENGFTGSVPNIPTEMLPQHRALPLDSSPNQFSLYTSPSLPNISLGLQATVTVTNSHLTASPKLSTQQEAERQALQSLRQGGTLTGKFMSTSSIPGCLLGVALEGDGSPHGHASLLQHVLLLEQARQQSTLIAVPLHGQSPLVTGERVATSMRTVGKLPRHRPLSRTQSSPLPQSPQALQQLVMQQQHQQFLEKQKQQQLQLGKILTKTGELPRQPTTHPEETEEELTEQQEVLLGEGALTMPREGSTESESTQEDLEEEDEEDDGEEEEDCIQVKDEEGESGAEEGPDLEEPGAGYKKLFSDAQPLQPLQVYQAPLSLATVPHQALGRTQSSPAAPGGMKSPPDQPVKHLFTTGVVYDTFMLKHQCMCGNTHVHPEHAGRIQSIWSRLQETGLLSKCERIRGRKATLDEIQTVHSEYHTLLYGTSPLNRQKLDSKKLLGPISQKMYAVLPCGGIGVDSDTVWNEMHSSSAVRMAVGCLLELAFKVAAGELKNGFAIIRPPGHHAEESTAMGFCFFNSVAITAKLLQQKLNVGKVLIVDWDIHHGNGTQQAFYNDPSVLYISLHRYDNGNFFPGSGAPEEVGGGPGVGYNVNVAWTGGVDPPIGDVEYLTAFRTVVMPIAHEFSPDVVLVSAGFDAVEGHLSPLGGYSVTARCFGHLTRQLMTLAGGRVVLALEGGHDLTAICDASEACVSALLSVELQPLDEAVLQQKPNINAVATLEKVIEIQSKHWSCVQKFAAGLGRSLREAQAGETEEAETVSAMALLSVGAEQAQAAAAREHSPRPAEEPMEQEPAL
Chain of HDAC1 (Q13547 whole entry): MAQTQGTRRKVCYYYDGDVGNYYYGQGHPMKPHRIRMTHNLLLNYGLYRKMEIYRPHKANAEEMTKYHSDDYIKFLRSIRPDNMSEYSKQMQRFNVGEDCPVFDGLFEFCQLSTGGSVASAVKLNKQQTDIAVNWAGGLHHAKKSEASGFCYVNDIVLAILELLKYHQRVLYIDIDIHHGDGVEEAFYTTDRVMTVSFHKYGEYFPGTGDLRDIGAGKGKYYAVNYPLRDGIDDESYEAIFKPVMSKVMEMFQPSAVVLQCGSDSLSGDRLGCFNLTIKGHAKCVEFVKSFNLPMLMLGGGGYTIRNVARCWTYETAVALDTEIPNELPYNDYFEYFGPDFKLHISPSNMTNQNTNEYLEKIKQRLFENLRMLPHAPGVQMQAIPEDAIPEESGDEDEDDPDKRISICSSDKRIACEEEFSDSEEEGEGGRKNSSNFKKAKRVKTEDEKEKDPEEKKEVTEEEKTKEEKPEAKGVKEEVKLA

As for `O=C(CCCCCCC(=O)Nc1ccccc1)NO` [SAHA, suberanilohydroxamic acid], the values for the inhibition at 100 µM on HDAC4, at HDAC7 and on HDAC9 were 34%, 27% and 37%, respectively.
As to `C/C=C1\NC(=O)[C@H]2CSSCC/C=C/[C@H](CC(=O)N[C@H](C(C)C)C(=O)N2)OC(=O)[C@H](C(C)C)NC1=O` [FK228, romidepsin], the half-maximal inhibitory concentration (IC50) was above 100 µM on HDAC5; above 100 µM against HDAC11; 1.2 µM against HDAC1; above 100 µM on HDAC4; above 100 µM at HDAC7; above 100 µM against HDAC9. Also, the inhibition at 100 µM on HDAC5 (read-out: Percentage Inhibition HDAC5) is 17%; on HDAC11 (read-out: Percentage Inhibition HDAC11), below 17%; on HDAC4 it was below 17%; at HDAC7, below 17%; at HDAC9 it was below 17%.
Molecule `Nc1ccccc1NC(=O)c1ccc(CNC(=O)OCc2cccnc2)cc1` [MS-275, entinostat] yielded an IC50 at HDAC11 above 100 µM.
